Assay results taken from patent US20200114012A1, “METHOD FOR PRODUCING A LIQUID COMPOSITION” (The University of Liverpool, priority 2017, published 2020).

Experiments:
[1] = Precipitation of TDF particulates with stabiliser combinations (Example 5); type: physicochemical; details: Stabiliser B combined with Stabiliser A AOT, procedure of Example 2
Experimental: 800 μL of the stabiliser-containing dichloromethane solution was pipetted into a 4 mL volume glass vial. 200 μL of TDF-containing methanol solution was rapidly pipetted into the same vial, which was then sealed and briefly shaken. A white, hazy suspension formed instantaneously. […] The TDF loading of the particulates was altered by changing the concentration of the methanol and dichloromethane solutions prior to mixing. It should be noted that this approach allows for different volumes of the TDF particulate suspensions to be produced simply by increasing the volumes added, so long as the 4:1 ratio of dichloromethane to methanol is maintained, this allows for fine control of the concentration of the TDF particles dispersed in the oil of the liquid composition.
Following the procedure described in Example 2, the following combinations of stabilisers were used to form TDF particulates (see table 7 below).

[2] = Solubility of TDF in solvents and of TDF particulates in oils; type: physicochemical
Description: Therefore methanol was used for the first solvent. TDF is not soluble in dichloromethane, which was used as the second solvent.
A selection of biocompatible natural oils were used to form liquid compositions. These oils were selected as the TDF particulates were insoluble in them and the oils could be dissolved into the mixed solvent system. The oils used were peanut oil, soy bean oil, sesame oil and safflower oil.

Row | Compound | Successful Precipitation [1] | solubility in dichloromethane ([2]; dichloromethane) | solubility ([2]; methanol, organic solvent or mixture) [mg/mL]
1 | propylene glycol monocaprylate (type I) [Capryol ™ PGMC] | Yes | – | –
2 | CCCCCCCC/C=C\CCCCCCCC(=O)OCC(O)CO (stereo not drawn) [Pecol ™, glycerol mono-oleate] | Yes | – | –
3 | propylene glycol monocaprylate (type II) [Capryol ™ 90] | Yes | – | –
4 | propylene glycol monopalmitostearate [Monosteol ™] | Yes | – | –
5 | propylene glycol monolaurate (type II) [Lauroglycol ™ 90] | Yes | – | –
6 | CCCCC/C=C\C/C=C\CCCCCCCC(=O)OCC(O)CO (stereo not drawn) [Maisine ™ 35-1, glyceryl monolinoleate] | Yes | – | –
7 | propylene glycol monolaurate (type I) [Lauroglycol ™ FCC] | Yes | – | –
8 | polyoxyethylene (2) stearyl ether [Brij ™ S2] | Yes | – | –

The remaining lines, values ahead:

Row | Successful Precipitation [1] | solubility in dichloromethane ([2]; dichloromethane) | solubility ([2]; methanol, organic solvent or mixture) [mg/mL] | Compound
9 | – | not soluble | ≤ 80 | CC(C)OC(=O)OCOP(=O)(CO[C@H](C)Cn1cnc2c(N)ncnc21)OCOC(=O)OC(C)C.O=C(O)/C=C/C(=O)O [TDF, tenofovir disoproxil fumerate]
10 | Yes | – | – | sorbitan oleate [Span ™ 80]
11 | Yes | – | – | polyoxyethylenesorbitan monopalmitate [Tween ™ 40]
12 | Yes | – | – | polyglyceryl-6 dioleate [Plurol ™ Olique]
13 | Yes | – | – | polyglyceryl-3 diisostearate [Plurol ™ diisosteraque]
14 | Yes | – | – | polyethylene glycol sorbitan monooleate [Tween ™ 80]
